Data taken from US8466161B2, “Hydroxamate derivative, a production method for the same, and a pharmaceutical composition comprising the same” (Chong Kun Dang Pharmaceutical Corp., priority 2009, dated 2013).

System: HL60 cell line
Assay: Inhibitory effect on growth of HL60 cell line (MTT)
Type: cell-based
Settings: Homo sapiens, HL-60, 72 h, 3 days culture
Method: In the culture of HL60 cells, 10% FBS-containing RPMI1640 medium was used Each of test substances was serially diluted in DMSO to a concentration of 10 mg/ml and serially diluted in PBS to a final concentration ranging from 100 μg/ml to 0.03 μg/ml. 20 μl (micro-liter) of each of the serially diluted test substances and 180 μl (micro-liter) of a medium containing 60×10^4 cells/ml were added to a 96-well plate and cultured under conditions of 37° C. and 5% CO2 for 3 days. After completion of the culture, 50 μl (micro-liter) of a solution of 1.25 mg/ml MTT (3-(4,5-dimethylthiazol-2-yl)-2,5-diphenyltetrazolium bromide) in PBS was added to each well of the plate and incubated at 37° C. for 3 hours. The formed formazan crystal was dissolved in 150 μl (micro-liter) of DMSO, and the absorbance at 570 nm was measured.

| IC50 [nM] | SMILES |
| --- | --- |
| 20 to 50 | CS(=O)(=O)N(CCCCCCC(=O)NO)c1ccc(-c2ccc3[nH]ccc3c2)nc1 [Compound 328, 7-(N-(6-(1H-indol-5-yl)pyridin-3-yl)methylsulfonamido)-N-hydroxyheptanamide] |
| 50 to 100 | Cn1ncc2ccc(-c3ccc(N(CCCCCCC(=O)NO)C(=O)c4cccnc4)cc3)cc21 [Compound 270, N-(7-(hydroxyamino)-7-oxoheptyl)-N-(4-(1-methyl-1H-indazol-6-yl)phenyl)nicotinamide] |
| 20 to 50 | CN1CCN(S(=O)(=O)N(CCCCCCC(=O)NO)c2ccc(-c3ccc4cnn(C)c4c3)cc2)CC1 [Compound 342, N-hydroxy-7-(4-methyl-N-(4-(1-methyl-1H-indazol-6-yl)phenyl)piperazine-1-sulfonamido)heptanamide] |
| 20 to 50 | COc1ccc(C(=O)N(CCCCCCC(=O)NO)c2ccc(-c3ccc4cc[nH]c4c3)cc2)cc1 [Compound 180, N-(4-(1H-indol-6-yl)phenyl)-N-(7-(hydroxyamino)-7-oxoheptyl)-4-methoxybenzamide] |
| 20 to 50 | CCS(=O)(=O)N(CCCCCCC(=O)NO)c1ccc(-c2ccc3cc[nH]c3c2)cc1 [Compound 276, 7-(N-(4-(1H-indol-6-yl)phenyl)ethylsulfonamido)-N-hydroxyheptanamide] |
| 20 to 50 | CS(=O)(=O)N(CCCCCCC(=O)NO)c1ccc(-c2ccc3cc[nH]c3c2)cc1 [Compound 264, 7-(N-(4-(1H-indol-6-yl)phenyl)methylsulfonamido)-N-hydroxyheptanamide] |
| 10 to 20 | CS(=O)(=O)N(CCCCCCC(=O)NO)c1ccc(-c2ccc3[nH]ccc3c2)cc1 [Compound 303, 7-(N-(4-(1H-indol-5-yl)phenyl)methylsulfonamido)-N-hydroxyheptanamide] |
| 10 to 20 | O=C(CCCCCCN(C(=O)N1CCOCC1)c1ccc(-c2ccc3cc[nH]c3c2)cc1)NO [Compound 306, N-(4-(1H-indol-6-yl)phenyl)-N-(7-(hydroxyamino)-7-oxoheptyl)morpholine-4-carboxamide] |
| 50 to 100 | O=C(CCCCCCN(C(=O)c1ccccn1)c1ccc(-c2ccc3cc[nH]c3c2)cc1)NO [Compound 211, N-(4-(1H-indol-6-yl)phenyl)-N-(7-(hydroxyamino)-7-oxoheptyl)picolinamide] |
| 50 to 100 | CCNC(=O)N(CCCCCCC(=O)NO)c1ccc(-c2ccc3cc[nH]c3c2)cc1 [Compound 295, 7-(1-(4-(1H-indol-6-yl)phenyl)-3-ethylureido)-N-hydroxyheptanamide] |
| 20 to 50 | CN1CCN(C(=S)N(CCCCCCC(=O)NO)c2ccc(-c3ccc4c(cnn4C)c3)cc2)CC1 [Compound 359, N-hydroxy-7-(4-methyl-N-(4-(1-methyl-1H-indazol-5-yl)phenyl)piperazine-1-thiocarboamido)heptanamide] |
| 10 to 20 | CN1CCN(C(=O)N(CCCCCCC(=O)NO)c2ccc(-c3ccc4cc[nH]c4c3)cc2)CC1 [Compound 309, N-(4-(1H-indol-6-yl)phenyl)-N-(7-(hydroxyamino)-7-oxoheptyl)-4-methylpiperazine-1-carboxamide] |
| 20 to 50 | CN1CCN(C(=O)N(CCCCCCC(=O)NO)c2ccc(-c3ccc4c(ccn4C)c3)cc2)CC1 [Compound 341, N-(7-(hydroxyamino)-7-oxoheptyl)-4-methyl-N-(4-(1-methyl-1H-indol-5-yl)phenyl)piperazine-1-carboxamide] |
| 20 to 50 | O=C(CCCCCCN(C(=O)c1ccccn1)c1ccc(-c2ccc3[nH]ccc3c2)cc1)NO [Compound 305, N-(4-(1H-indol-5-yl)phenyl)-N-(7-(hydroxyamino)-7-ooxheptyl)picolinamide] |
| 20 to 50 | CN1CCN(C(=S)N(CCCCCCC(=O)NO)c2ccc(-c3ccc4[nH]ccc4c3)cc2)CC1 [Compound 358, 7-(N-(4-(1H-indol-5-yl)phenyl)-4-methylpiperazine-1-carbothioamido)-N-hydroxyheptanamide] |
| 50 to 100 | CNC(=O)N(CCCCCCC(=O)NO)c1ccc(-c2ccc3cc[nH]c3c2)cc1 [Compound 275, 7-(1-(4-(1H-indol-6-yl)phenyl)-3-methylureido)-N-hydroxyheptanamide] |
